Source: publication PMC5678437, “A new antagonist for CCR4 attenuates allergic lung inflammation in a mouse model of asthma” (Scientific Reports, 2017)

Key:
Assay type in all cases: cell-based
[1] = biological target: T1, CCR4 (Homo sapiens, UniProt P51679); experiment: Chemotaxis inhibition assay, pcDI-CCR4-transfected HEK293 cells; conditions: 1 μM compound, 30 min pretreatment; C27 100 ng/ml; compared with compound 22 and compound 6b
T1 construct: expressed in transfected cells; cell membrane extract
T1 sequence (P51679 1-360): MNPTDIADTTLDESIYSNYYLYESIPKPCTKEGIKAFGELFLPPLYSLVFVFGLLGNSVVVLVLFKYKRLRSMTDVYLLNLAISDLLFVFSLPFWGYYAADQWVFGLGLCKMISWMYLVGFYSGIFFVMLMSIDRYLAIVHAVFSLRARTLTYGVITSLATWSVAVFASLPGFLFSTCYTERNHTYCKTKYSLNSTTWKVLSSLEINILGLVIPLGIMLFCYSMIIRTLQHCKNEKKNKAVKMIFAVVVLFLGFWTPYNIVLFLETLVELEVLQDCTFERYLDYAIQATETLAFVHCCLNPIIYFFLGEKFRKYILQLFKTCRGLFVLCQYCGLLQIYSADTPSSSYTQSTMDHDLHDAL
Protocol: Chemokine receptor expression plasmid was transiently transfected into HEK293 by electroporation at 120 V for 20 ms, using an electric pulse generator (Electro Square Porator ECM 830; BTX, San Diego, CA). Forty-eight-well micro chemotaxis chambers (Neutroprobe, Bethesda, MD, USA) were used in this assay. Forty-eight hours later, the cells were pretreated with compounds or compounds dissolved medium (1‰ DMSO) for 30 min at 37 °C prior to stimulation with chemoattractant. Chemoattractant diluted in RPMI 1640 medium supplemented with 0.1% bovine serum albumin (BSA) was placed in the lower chambers (27.5 μl/well). In these assays, CCL22 and CCL17 (Peprotech, Rocky Hill, NJ, USA) were used as chemoattractant and the final concentrations of chemoattractant were 10 ng/ml and 80 ng/ml respectively. The pcDI-CCR4-transfected HEK293 cells were resuspended in the same medium at a density of 1 × 10^6 cells/ml and added to the upper chambers (55 μl/well). […] Cells that migrated into each filter were counted in five randomly selected high-power fields (400 × ) per well. […] The chemotactic index was calculated and expressed as the number of cells that migrated to the sample over the number of cells that migrated to the control medium.

[2] = biological target: T2, CXCR1 (Homo sapiens, UniProt P25024); experiment: Chemotaxis inhibition assay for receptor specificity, HEK293-CXCR1; conditions: 0.2, 1, 5, 25 μM, 30 min pretreatment
T2 construct: expressed in transfected cells; host or cells: HEK293; plasmid gift of Dr. Philip M. Murphy (NIAID, NIH)
T2 sequence (P25024 1-350): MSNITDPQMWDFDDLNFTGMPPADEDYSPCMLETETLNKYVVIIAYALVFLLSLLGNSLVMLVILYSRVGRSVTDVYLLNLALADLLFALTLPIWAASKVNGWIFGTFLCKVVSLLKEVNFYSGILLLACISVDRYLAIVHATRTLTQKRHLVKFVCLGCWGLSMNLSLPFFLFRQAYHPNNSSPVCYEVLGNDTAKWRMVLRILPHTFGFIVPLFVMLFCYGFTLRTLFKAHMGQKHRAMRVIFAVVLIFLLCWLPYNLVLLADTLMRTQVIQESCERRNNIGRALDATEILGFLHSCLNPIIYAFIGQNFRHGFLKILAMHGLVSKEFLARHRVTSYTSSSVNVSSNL
Protocol: HEK293 cells were transfected with different chemokine receptors. The corresponding chemokines of different receptors were placed in the lower chambers. The transfected cells were pretreated with different concentrations of Compound 8a or 1‰ DMSO for 30 min at a density of 1 × 10^6 cells/ml and added to the upper chambers, the final concentration of the compound is: 0.2 μM, 1 μM, 5 μM, and 25 μM, respectively.

[3] = biological target: T3, CCR2B (Homo sapiens, UniProt P41597); experiment: Chemotaxis assay for receptor specificity, HEK293-CCR2B; conditions: compound as chemoattractant in lower chamber, 0.2, 1, 5, 25 μM
T3 construct: expressed in transfected cells; host or cells: HEK293, pcDB-CCR2B plasmid made in the authors' laboratory
T3 sequence (P41597 1-360 isoform P41597-2): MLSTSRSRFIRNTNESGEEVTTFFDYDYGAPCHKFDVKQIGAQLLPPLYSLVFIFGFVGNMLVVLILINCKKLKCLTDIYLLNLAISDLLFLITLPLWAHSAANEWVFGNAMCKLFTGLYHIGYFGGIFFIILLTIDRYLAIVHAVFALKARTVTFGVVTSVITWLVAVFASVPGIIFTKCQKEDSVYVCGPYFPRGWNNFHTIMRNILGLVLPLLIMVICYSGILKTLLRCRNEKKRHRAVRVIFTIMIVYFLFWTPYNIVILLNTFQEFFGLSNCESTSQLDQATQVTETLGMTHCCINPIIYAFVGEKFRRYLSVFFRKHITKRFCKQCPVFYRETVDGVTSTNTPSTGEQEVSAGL
Protocol: HEK293 cells were transfected with different chemokine receptors. Compound 8a with DMSO was diluted to 0.2 mM, 1 mM, 5 mM and 25 mM, and then we used RPMI 1640 medium containing 0.1% BSA for dilution. The final concentration is: 0.2 μM, 1 μM, 5 μM and 25 μM. DMSO was also diluted 1000-fold with 0.1% BSA RPMI 1640 medium. Chemokines was also diluted to an appropriate concentration. The dilutions of Compound 8a, 1‰ DMSO, the corresponding chemokines of different receptors and 0.1% BSA RPMI 1640 medium were placed in the lower chambers (27.5 μl/well). The transfected HEK293 cells were resuspended in the same medium at a density of 1 × 10^6 cells/ml and added to the upper chambers (55 μl/well).

inhibition of chemotaxis of CCR4 transfected HEK293 to C27 [1]: more positive efficiency
inhibition of chemotaxis of HEK293-CXCR1 to its ligand [2]: few influence
chemotaxis effect of the compound on HEK293-CCR2B [3]: didn’t exert chemotaxis effects
Compound: O=C(C1CCCCN1)N1CCN(c2nc(Cl)cc(NCc3ccc(Cl)cc3Cl)n2)CC1 (stereo not drawn) [compound 8a, {4-[4-Chloro-6-(2,4-dichloro-benzylamino)-pyrimidin-2-yl]-piperazin-1-yl}-piperidin-2-yl-methanone]
